Structures can show the parent of a compound that is named as a salt. Where two headings read alike, the source gives them in different places.
Legend:
[1] = target: Rabbit Reticulocyte Lysate (eukaryotic protein synthesis); assay: Rabbit reticulocyte lysate luciferase assay (inhibition of eukaryotic protein synthesis); type: biochemical; settings: read-out: Rabbit reticulocyte IC50 (μM/% inhib.)
How it was run: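 Nuclease-treated rabbit reticulocyte lysate translating luciferase control RNA, with complete amino acids, was incubated at 30° C. for 90 minutes with 2-fold serial compound dilutions. Luminescence was measured after adding luciferase reagent. % inhibition was relative to water controls, with no-RNA wells as background.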

S. aureus (Sa) = assay: Broth microdilution minimum inhibitory concentration (MIC); type: cell-based; settings: Staphylococcus aureus, read-out: Sa + bicarb MIC
How it was run: (§1)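 Following CLSI M07-A9 with minor changes, growth medium was cation-adjusted Mueller-Hinton broth, alone or supplemented with bicarbonate (6.25 or 25 mM) or heat-inactivated human serum up to 50%. Each compound was tested over eight two-fold dilutions against 5×10^4 CFU per well.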

P. aeruginosa (Pa) = assay: as above; type: cell-based; settings: Pseudomonas aeruginosa, read-out: Pa MIC + bicarb
How it was run: as §1

A. baumannii (Ab) = assay: as above; type: cell-based; settings: Acinetobacter baumannii, read-out: Ab + bicarb MIC
How it was run: as §1

E. faecalis (Ef) = assay: as above; type: cell-based; settings: Enterococcus faecalis, read-out: Ef + bicarb MIC
How it was run: as §1

E. coli (Ec) = assay: as above; type: cell-based; settings: Escherichia coli, read-out: E. coli + bicarb MIC
How it was run: as §1

[2] = system: E. coli S30 extract (bacterial protein synthesis); assay: E. coli S30 extract coupled transcription-translation luciferase assay (inhibition of bacterial protein synthesis); type: biochemical; settings: read-out: S30 IC50 (μM/% inhib.)
How it was run: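 Cell-free coupled transcription-translation in E. coli S30 circular-DNA extract, with pBESTluc plasmid as template and complete amino acid mix. Eight 2-fold compound dilutions were incubated with the extract 1 h at 37 °C, chilled, then luciferase luminescence was read. % inhibition was taken relative to no-inhibitor wells; no-DNA wells gave background.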

[3] = class by IC50 or % inhibition @ 1 μM
[4] = S. aureus, growth medium supplemented with sodium bicarbonate
[5] = P. aeruginosa, growth medium supplemented with sodium bicarbonate
[6] = A. baumannii, growth medium supplemented with sodium bicarbonate
[7] = E. faecalis, growth medium supplemented with sodium bicarbonate
[8] = E. coli, growth medium supplemented with sodium bicarbonate

For `CC(C)(N)C(=O)N1CCN(C(=O)Nc2ccn(-c3ccc(CN4CC[C@H](N)[C@@H](F)C4)cc3)c(=O)n2)CC1` [Compound 344, hydrochloride salt], which IC50 [1, 3] is on record?
The IC50 was > 1 µM.

What about the MIC (S. aureus (Sa)) of the same compound?
Its MIC is > 32 µg/mL.

What about the MIC (P. aeruginosa (Pa)) of the same compound?
Its MIC is > 32 µg/mL.

What about the MIC (A. baumannii (Ab)) of the same compound?
Its MIC is > 32 µg/mL.

What about the MIC (E. faecalis (Ef)) of the same compound?
Its MIC is > 32 µg/mL.

What about the MIC (E. coli (Ec)) of the same compound?
Its MIC is > 32 µg/mL.

What about the IC50 [2, 3] of the same compound?
The IC50 was > 1 µM.

What does the source list for `CCN(Cc1ccc(-n2ccc(NC(=O)N3CCN(C(=O)C(C)(C)N)CC3)nc2=O)cc1)[C@H]1CC[C@H](N)C1` [Compound 125]?
IC50 [1, 3]: > 1 µM; MIC (S. aureus (Sa); [4]): < 8 µg/mL; MIC (P. aeruginosa (Pa); [5]): > 32 µg/mL; MIC (A. baumannii (Ab); [6]): > 32 µg/mL; MIC (E. faecalis (Ef); [7]): < 8 µg/mL; MIC (E. coli (Ec); [8]): < 8 µg/mL; IC50 [2, 3]: < 0.5 µM

Which results are given for `CC(N)C1CCN(Cc2ccc(-n3ccc(NC(=O)N4CCN(C(=O)[C@@](C)(N)CO)[C@H](C)C4)nc3=O)cc2)CC1` (stereo partly drawn) [Compound 70]?
IC50 [1, 3]: > 1 µM; MIC (S. aureus (Sa); [4]): < 8 µg/mL; MIC (P. aeruginosa (Pa); [5]): > 32 µg/mL; MIC (A. baumannii (Ab); [6]): > 32 µg/mL; MIC (E. faecalis (Ef); [7]): < 8 µg/mL; MIC (E. coli (Ec); [8]): < 8 µg/mL; IC50 [2, 3]: < 0.5 µM

For `Cc1cc(-n2ccc(NC(=O)N3CCN(C(=O)[C@@](C)(N)CO)CC3)nc2=O)ccc1CCN1CCCC(N)CC1` (stereo partly drawn) [Compound 139], which IC50 [1, 3] is on record?
The IC50 was > 1 µM.

And the MIC (S. aureus (Sa); [4])?
The MIC was < 8 µg/mL.

What about the MIC (P. aeruginosa (Pa); [5]) of the same compound?
The MIC was 8 to 32 µg/mL.

And the MIC (A. baumannii (Ab); [6])?
The MIC was > 32 µg/mL.

And the MIC (E. faecalis (Ef); [7])?
The MIC was < 8 µg/mL.

And the MIC (E. coli (Ec); [8])?
Its MIC is < 8 µg/mL.

And the IC50 [2, 3]?
The IC50 was < 0.5 µM.

How did the IC50 [1, 3] turn out when `C[C@](N)(CO)C(=O)N1CCN(C(=O)Nc2ccn(-c3ccc(CN4CC(CCN)C4)cc3)c(=O)n2)CC1` [Compound 136] was run?
The IC50 was > 1 µM.

What about the MIC (S. aureus (Sa); [4]) of the same compound?
The MIC was 8 to 32 µg/mL.

What about the MIC (P. aeruginosa (Pa); [5]) of the same compound?
Its MIC is > 32 µg/mL.

And the MIC (A. baumannii (Ab); [6])?
Its MIC is > 32 µg/mL.

And the MIC (E. faecalis (Ef); [7])?
The MIC was 8 to 32 µg/mL.

And the MIC (E. coli (Ec); [8])?
Its MIC is 8 to 32 µg/mL.

What about the IC50 [2, 3] of the same compound?
Its IC50 is < 0.5 µM.

How did the IC50 [1, 3] turn out when `CC(C)(N)C(=O)N1CCN(C(=O)Nc2ccn(-c3ccc(CNC4CCC[C@@H](N)C4)cc3)c(=O)n2)CC1` (mixture of isomers) [Compound 320, hydrochloride salt] was run?
Its IC50 is > 1 µM.

And the MIC (S. aureus (Sa))?
Its MIC is 8 to 32 µg/mL.

And the MIC (P. aeruginosa (Pa))?
The MIC was > 32 µg/mL.

What about the MIC (A. baumannii (Ab)) of the same compound?
Its MIC is > 32 µg/mL.

What about the MIC (E. faecalis (Ef)) of the same compound?
The MIC was > 32 µg/mL.

And the MIC (E. coli (Ec))?
Its MIC is < 8 µg/mL.

What about the IC50 [2, 3] of the same compound?
The IC50 was < 0.5 µM.

How did the IC50 [1, 3] turn out when `CN(Cc1ccc(-n2ccc(NC(=O)N3CCN(C(=O)C(C)(C)N)CC3)nc2=O)cc1)[C@H]1CC[C@H](N)CC1` [Compound 118] was run?
The IC50 was > 1 µM.

What about the MIC (S. aureus (Sa); [4]) of the same compound?
Its MIC is < 8 µg/mL.

What about the MIC (P. aeruginosa (Pa); [5]) of the same compound?
The MIC was 8 to 32 µg/mL.

What about the MIC (A. baumannii (Ab); [6]) of the same compound?
The MIC was 8 to 32 µg/mL.

And the MIC (E. faecalis (Ef); [7])?
Its MIC is < 8 µg/mL.

What about the MIC (E. coli (Ec); [8]) of the same compound?
Its MIC is < 8 µg/mL.

And the IC50 [2, 3]?
Its IC50 is < 0.5 µM.

`CC(C)(N)C(=O)N1CCN(C(=O)Nc2ccn(-c3ccc(C(N)C(=O)NC4CNC4)cc3)c(=O)n2)CC1` (stereo not drawn) [Compound 145] was tested. Which IC50 [1, 3] did it give?
The IC50 was > 1 µM.

What about the MIC (S. aureus (Sa); [4]) of the same compound?
Its MIC is > 32 µg/mL.

What about the MIC (P. aeruginosa (Pa); [5]) of the same compound?
The MIC was > 32 µg/mL.

What about the MIC (A. baumannii (Ab); [6]) of the same compound?
The MIC was > 32 µg/mL.

And the MIC (E. faecalis (Ef); [7])?
The MIC was > 32 µg/mL.

What about the MIC (E. coli (Ec); [8]) of the same compound?
The MIC was > 32 µg/mL.

And the IC50 [2, 3]?
Its IC50 is 0.5 to 1 µM.

Which IC50 [1, 3] does the source give for `CN(Cc1ccc(-n2ccc(NC(=O)N3CCN(C(=O)C(C)(C)N)CC3)nc2=O)cc1)CC1CNC1` [Compound 111] here?
The IC50 was > 1 µM.

And the MIC (S. aureus (Sa); [4])?
The MIC was 8 to 32 µg/mL.

What about the MIC (P. aeruginosa (Pa); [5]) of the same compound?
The MIC was > 32 µg/mL.

And the MIC (A. baumannii (Ab); [6])?
Its MIC is > 32 µg/mL.

And the MIC (E. faecalis (Ef); [7])?
Its MIC is > 32 µg/mL.

And the MIC (E. coli (Ec); [8])?
Its MIC is 8 to 32 µg/mL.

And the IC50 [2, 3]?
Its IC50 is 0.5 to 1 µM.

For `CC(C)(N)C(=O)N1CCN(C(=O)Nc2ccn(-c3ccc(CN4CCC(C5CNC5)CC4)cc3)c(=O)n2)CC1` [Compound 370, hydrochloride salt], which IC50 ([1]; % inhibition @ 1 μM) is on record?
The IC50 was > 1 µM.

What about the MIC (S. aureus (Sa)) of the same compound?
The MIC was < 8 µg/mL.

What about the MIC (P. aeruginosa (Pa)) of the same compound?
Its MIC is > 32 µg/mL.

And the MIC (A. baumannii (Ab))?
Its MIC is > 32 µg/mL.

What about the MIC (E. faecalis (Ef)) of the same compound?
Its MIC is < 8 µg/mL.

And the MIC (E. coli (Ec))?
Its MIC is < 8 µg/mL.

And the IC50 ([2]; % inhibition @ 1 μM)?
The IC50 was < 0.5 µM.

`CC(C)(N)C(=O)N1CCN(C(=O)Nc2ccn(-c3ccc(CCN4CCCC(N)CC4)c(F)c3)c(=O)n2)CC1` (stereo not drawn) [Compound 141] was tested. Which IC50 [1, 3] did it give?
Its IC50 is > 1 µM.

And the MIC (S. aureus (Sa); [4])?
Its MIC is < 8 µg/mL.

And the MIC (P. aeruginosa (Pa); [5])?
The MIC was 8 to 32 µg/mL.

And the MIC (A. baumannii (Ab); [6])?
Its MIC is > 32 µg/mL.

And the MIC (E. faecalis (Ef); [7])?
The MIC was < 8 µg/mL.

And the MIC (E. coli (Ec); [8])?
Its MIC is < 8 µg/mL.

And the IC50 [2, 3]?
The IC50 was < 0.5 µM.

What does the source list for `C[C@@H]1CN(C(=O)C(C)(C)N)CCN1C(=O)Nc1ccn(-c2ccc(CCN3CCCC(N)CC3)cc2)c(=O)n1` (stereo partly drawn) [Compound 90]?
IC50 [1, 3]: > 1 µM; MIC (S. aureus (Sa); [4]): < 8 µg/mL; MIC (P. aeruginosa (Pa); [5]): > 32 µg/mL; MIC (A. baumannii (Ab); [6]): < 8 µg/mL; MIC (E. faecalis (Ef); [7]): < 8 µg/mL; MIC (E. coli (Ec); [8]): < 8 µg/mL; IC50 [2, 3]: < 0.5 µM

Reference: US12503452B2 (Curza Global, LLC, priority 2019, dated 2025)
